This is an account of results in patent US12098154B2, “Inhibitors of cyclin-dependent kinases” (Dana-Farber Cancer Institute, Inc., priority 2015, dated 2024).

Like-named read-outs stand apart in the source and are kept apart here. Bounds are passed on as bounds.

Experiment [1] deals with Jurkat cells. Nature of the experiment: Jurkat proliferation assay (CellTiter-Glo). The conditions noted are these: for IC50: Homo sapiens, Jurkat. Type of experiment: cell-based. The protocol:
Jurkat cells were seeded at a density of 25,000 cells/well in 96-well plates. Cells were then treated with the indicated compounds in a 10-pt dose escalation format from 1 nM to 10 μM or DMSO control for 72 hours. After 72 hours, the cells were assayed using CellTiter-Glo Luminescent Cell Viability Assay (Promega) to determine cell viability by measuring the amount of ATP present in each sample cell population, which is an indicator of cell metabolic activity. […] All data points were performed in biological triplicate. Error bars are +/−SD.
Jurkat cells were seeded at a density of 25,000 cells/well in 96-well plates. Cells were then treated with the indicated compounds in a 10-pt dose escalation format from 1 nM to 10 μM or DMSO control for 72 hrs. After 72 hrs, cells were assayed using CellTiter-Glo Luminescent Cell Viability Assay (Promega) to determine cell viability by measuring the amount of ATP present in each sample cell population, which is an indicator of cell metabolic activity. […] All data points were performed in biological triplicate. Error bars are +/−SD.
A general note: ATP-based viability assays read luminescence as a measure of living cells.

Another experiment concerns the target CDK9/CycT (Homo sapiens, UniProt P50750). Nature of the experiment: CDK9/CycT inhibition (Tables A1, A2). Type of experiment: biochemical.
In another experiment the target is CDK7/CycH (Homo sapiens, UniProt P50613). Nature of the experiment: CDK7/CycH inhibition (Tables A1, A2). Type of experiment: biochemical.
For a further experiment, the target named is CDK2/CycA (Homo sapiens, UniProt P24941). Nature of the experiment: CDK2/CycA inhibition (Tables A1, A2). The class given is biochemical.
For experiment [2], the system named is TAL1, RUNX1, and MYB mRNA transcripts. Nature of the experiment: Jurkat gene expression analysis (qPCR). Type of experiment: cell-based. The conditions noted are these: 1 μM, 6 hrs, Jurkat cells. The protocol:
Jurkat cells were seeded at a density of 5 million cells/10 mL. Cells were then treated with 200 nM or 1 μM of the indicated compounds or with DMSO control for 6 hours. Total RNA was extracted from 5 million cells using the RNeasy Plus Mini Kit (Qiagen) with a gDNA eliminator mini column to remove genomic DNA. mRNA was reverse transcribed into cDNA using the SuperScript III First-Strand Synthesis Kit (Life Technologies) using an oligo-dT primer to capture polyadenylated mRNAs. Quantitative PCR (qPCR) using transcript-specific Taqman probes (Applied Biosystems) was used to assess the effect of compound treatment on the expression of the indicated mRNA transcripts. All experiments shown were performed in biological triplicate. Each individual biological sample was qPCR-amplified in technical duplicate. Error bars are +/−SD. Expression data from drug treatments were normalized to GAPDH probe.
Jurkat cells were seeded at a density of 5 million cells/10 mL. Cells were then treated with 200 nM or 1 μM of the indicated compounds or with DMSO control for 6 hrs. […] Quantitative PCR (qPCR) using transcript-specific Taqman probes (Applied Biosystems) was used to assess the effect of compound treatment on the expression of the indicated mRNA transcripts. […]
For orientation: Quantitative PCR measures a nucleic acid by following its amplification.

For experiment [3], the system named is Jurkat cells. Nature of the experiment: Growth assay with and without washout. The class given is cell-based. The conditions noted are these: 1 uM, 4 hours treatment, assayed 68 hours after washout. The method, then: Cells were treated with each compound for 4 hours and either no washout (no washout) or had compound removed by washing cells with media (washout). Sixty-eight (68) hours after washout, the cells were assayed for antiproliferative effects. Error bars indicate +/−SD.
4 hours after treatment, cells were either not treated or washed three times with RPMI media to remove all compound. Cells were replated and allowed to grow for 68 hours. Cells were assayed using celltiter glo (Promega) to determine cell viability by measuring the amount of ATP present, which is an indicator of cell metabolic activity. Results are graphed as luminescent values (FIG. 1).

For the next experiment, the target named is CDK12/CCNK complex (Homo sapiens, UniProt Q9NYV4). Nature of the experiment: Electrospray ionization mass spectra of CDK12/CCNK complex after treatment. Type of experiment: binding. The conditions noted are these: 1 hr at room temperature. The text has this:
The zero-charge mass spectra in the upper panel and inset is the result of deconvolution of the raw mass spectrum in the lower panel. A. CCNK. C, phosphorylated CDK12. D, CDK12.
The zero-charge mass spectra in the upper panel and inset is the result of deconvolution of the raw mass spectrum in the lower panel. A, CCNK. B, phosphorylated and E-9 labeled CDK12. C, E-9 labeled CDK12.

Another experiment deals with T1, CDK12 (Homo sapiens, UniProt Q9NYV4).
T1 construct: endogenous in cells; host or cells: Jurkat
Put plainly: Pulldown assay with biotin-THZ1, blot for Cyclin K. Type of experiment: cell-based. The note with it: Jurkat cells treated with 1 uM or 200 nM. The protocol:
Specifically. […] Decreased pulldown of cyclin K with biotin-THZ1 indicated a loss of CDK12 binding.
(§1) 6 hours after treatment, cells were washed and harvested by resuspending in lysis buffer (50 mM Hepes pH 7.4, 150 mM NaCl, 1% NP-40, 5 mM EDTA, protease and phosphatase inhibitors) and lysing on ice 30 minutes. Lysates were cleared by centrifugation at 15,000 rpm 30 minutes. Biotin-labeled THZ1 was added to 1 uM to lysates and rotated at 4° C. overnight. Streptavidin-agarose beads were washed and 30 uL slurry was added to each lysate and rotated for 1 hour at 4° C. Beads were washed 5 times with lysis buffer and 50 uL 2×LDS buffer was added to each sample. Samples were boiled and equal volume of protein was loaded onto gel. Gel was transferred to nitrocellulose and blotted for Cyclin K and Cyclin H.

For another experiment, the target named is T2, CDK7 (Homo sapiens, UniProt P50613).
T2 construct: endogenous in cells; host or cells: Jurkat
Nature of the experiment: Pulldown assay with biotin-THZ1, blot for Cyclin H. Type of experiment: cell-based. The conditions noted are these: Jurkat cells treated with 1 uM or 200 nM. The protocol:
Compounds E9 and E17 were able to block pulldown of cyclin K at 1 μM and 200 nM. Specifically. […] Decreased pulldown of cyclin K with biotin-THZ1 indicated a loss of CDK12 binding.
as §1

The test system of experiment [4] is Pol II Ser2 phosphorylation and MCL1 levels. Put plainly: Washout expression assay (western blot). Type of experiment: cell-based. The conditions noted are these: Jurkat cells, 1 uM, 4 hours, 6 hours. The protocol: 4 hours after treatment, cells were either not treated or washed three times with RPMI media to remove all compound. Cells were replated and allowed to grow for 6 hours. Cells were harvested, washed 3 times with PBS and resuspended in RIPA buffer (25 mM Tris-HCl (pH 7.6), 150 mM NaCl, 1% NP-40, 1% sodium deoxycholate, 0.1% SDS). Equal amount of protein was loaded onto gel and blotted for Pol II Ser2 (Millipore 04-1571), total pol II (Santa Cruz 17798), Tubulin (Cell Signaling 11H10) or MCL1 (Cell Signaling 4572S)
For orientation: A western blot detects proteins with antibodies after separation by electrophoresis.

The test system of a further experiment is CDK12 and CDK13. Put plainly: KiNativ kinome profiling. The class given is binding. The note with it: 1 μM, 6 hrs. The method, then:
Jurkat cells were seeded at a density of 100 million cells/50 mL. Cells were treated with E9 (1 μM) or DMSO control for 6 hrs. Cells were washed twice with cold phosphate-buffered saline (PBS). PBS-washed cell pellets were flash frozen and subjected to KiNativt™ kinome profiling at ActivX Biosciences, Inc. according to their specifications using their desthiobiotin-ATP probe. Peptide sequences shown in Table A4 belong to the indicated kinase(s) and were detected by mass spectrometry (MS) under DMSO control conditions following enrichment for biotinylated proteins by streptavidin pulldown and subsequent proteolysis. Kinases labeled by the reactive desthiobiotin-ATP probe indicate that the kinase was accessible to desthiobiotin-ATP probe binding. Results shown are normalized to these paired DMSO controls and numbers represent the percentage (compared to DMSO control) of MS signal lost for sequences of an indicated kinase, eg—numbers approaching 100% indicate that test compound effectively out-competed the desthiobiotin ATP probe for binding to the kinase, resulting in decreased labeling and enrichment for peptides representing this kinase.

Setting [5] is: 72 h, CellTiter-Glo, read-out: IC50 on Jurkat T-ALL cell proliferation.

Sequence of CDK9/CycT (P50750 whole entry): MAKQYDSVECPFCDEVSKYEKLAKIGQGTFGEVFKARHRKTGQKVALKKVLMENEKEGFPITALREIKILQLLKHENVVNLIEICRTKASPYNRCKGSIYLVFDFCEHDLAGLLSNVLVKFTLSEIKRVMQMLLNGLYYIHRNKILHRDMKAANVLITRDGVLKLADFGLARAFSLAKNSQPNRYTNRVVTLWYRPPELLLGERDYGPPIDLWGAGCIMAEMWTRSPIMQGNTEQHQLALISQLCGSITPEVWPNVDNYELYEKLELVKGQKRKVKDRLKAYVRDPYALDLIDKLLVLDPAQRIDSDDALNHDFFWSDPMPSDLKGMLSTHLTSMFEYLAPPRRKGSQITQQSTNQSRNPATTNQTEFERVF
Sequence of CDK9/CycT (O60563 whole entry partner): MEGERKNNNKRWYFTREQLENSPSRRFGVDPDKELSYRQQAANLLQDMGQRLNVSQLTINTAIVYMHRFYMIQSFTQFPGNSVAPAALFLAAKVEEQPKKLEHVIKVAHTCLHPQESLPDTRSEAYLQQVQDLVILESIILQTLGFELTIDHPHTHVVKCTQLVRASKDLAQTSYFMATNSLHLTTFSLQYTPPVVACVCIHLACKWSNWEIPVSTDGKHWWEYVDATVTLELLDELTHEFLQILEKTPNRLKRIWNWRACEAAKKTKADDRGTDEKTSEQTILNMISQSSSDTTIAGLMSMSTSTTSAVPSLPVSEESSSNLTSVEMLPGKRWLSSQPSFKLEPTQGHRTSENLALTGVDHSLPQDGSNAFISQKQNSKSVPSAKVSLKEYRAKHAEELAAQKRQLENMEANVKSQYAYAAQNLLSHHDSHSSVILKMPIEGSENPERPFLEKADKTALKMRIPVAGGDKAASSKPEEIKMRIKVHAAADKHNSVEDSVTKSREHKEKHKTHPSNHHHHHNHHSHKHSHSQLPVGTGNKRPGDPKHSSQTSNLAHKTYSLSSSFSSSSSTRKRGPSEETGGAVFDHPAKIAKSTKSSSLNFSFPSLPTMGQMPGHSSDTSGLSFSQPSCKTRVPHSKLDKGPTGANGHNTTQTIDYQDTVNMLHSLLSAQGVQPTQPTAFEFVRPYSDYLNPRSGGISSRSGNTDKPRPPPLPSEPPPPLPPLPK
Sequence of CDK7/CycH (P50613 whole entry): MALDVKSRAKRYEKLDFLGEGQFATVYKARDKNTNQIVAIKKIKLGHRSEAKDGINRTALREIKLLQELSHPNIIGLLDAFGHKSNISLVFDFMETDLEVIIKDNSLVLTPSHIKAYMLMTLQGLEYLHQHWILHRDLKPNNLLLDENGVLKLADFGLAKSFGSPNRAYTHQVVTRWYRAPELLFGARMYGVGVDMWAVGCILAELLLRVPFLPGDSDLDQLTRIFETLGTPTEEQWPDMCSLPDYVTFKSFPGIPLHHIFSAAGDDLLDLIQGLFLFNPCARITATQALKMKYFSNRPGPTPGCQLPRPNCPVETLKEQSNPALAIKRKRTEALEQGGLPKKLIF
Sequence of CDK7/CycH (P51946 whole entry partner): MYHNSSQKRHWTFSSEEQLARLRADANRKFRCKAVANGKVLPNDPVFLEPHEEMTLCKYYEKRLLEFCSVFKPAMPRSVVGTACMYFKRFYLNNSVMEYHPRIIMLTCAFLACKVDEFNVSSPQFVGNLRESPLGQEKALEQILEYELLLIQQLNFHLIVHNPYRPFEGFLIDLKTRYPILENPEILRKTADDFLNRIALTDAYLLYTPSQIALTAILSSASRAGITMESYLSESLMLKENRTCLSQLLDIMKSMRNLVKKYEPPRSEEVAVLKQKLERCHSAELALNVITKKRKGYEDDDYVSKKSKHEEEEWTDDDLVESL
Sequence of CDK12/CCNK complex (Q9NYV4 whole entry): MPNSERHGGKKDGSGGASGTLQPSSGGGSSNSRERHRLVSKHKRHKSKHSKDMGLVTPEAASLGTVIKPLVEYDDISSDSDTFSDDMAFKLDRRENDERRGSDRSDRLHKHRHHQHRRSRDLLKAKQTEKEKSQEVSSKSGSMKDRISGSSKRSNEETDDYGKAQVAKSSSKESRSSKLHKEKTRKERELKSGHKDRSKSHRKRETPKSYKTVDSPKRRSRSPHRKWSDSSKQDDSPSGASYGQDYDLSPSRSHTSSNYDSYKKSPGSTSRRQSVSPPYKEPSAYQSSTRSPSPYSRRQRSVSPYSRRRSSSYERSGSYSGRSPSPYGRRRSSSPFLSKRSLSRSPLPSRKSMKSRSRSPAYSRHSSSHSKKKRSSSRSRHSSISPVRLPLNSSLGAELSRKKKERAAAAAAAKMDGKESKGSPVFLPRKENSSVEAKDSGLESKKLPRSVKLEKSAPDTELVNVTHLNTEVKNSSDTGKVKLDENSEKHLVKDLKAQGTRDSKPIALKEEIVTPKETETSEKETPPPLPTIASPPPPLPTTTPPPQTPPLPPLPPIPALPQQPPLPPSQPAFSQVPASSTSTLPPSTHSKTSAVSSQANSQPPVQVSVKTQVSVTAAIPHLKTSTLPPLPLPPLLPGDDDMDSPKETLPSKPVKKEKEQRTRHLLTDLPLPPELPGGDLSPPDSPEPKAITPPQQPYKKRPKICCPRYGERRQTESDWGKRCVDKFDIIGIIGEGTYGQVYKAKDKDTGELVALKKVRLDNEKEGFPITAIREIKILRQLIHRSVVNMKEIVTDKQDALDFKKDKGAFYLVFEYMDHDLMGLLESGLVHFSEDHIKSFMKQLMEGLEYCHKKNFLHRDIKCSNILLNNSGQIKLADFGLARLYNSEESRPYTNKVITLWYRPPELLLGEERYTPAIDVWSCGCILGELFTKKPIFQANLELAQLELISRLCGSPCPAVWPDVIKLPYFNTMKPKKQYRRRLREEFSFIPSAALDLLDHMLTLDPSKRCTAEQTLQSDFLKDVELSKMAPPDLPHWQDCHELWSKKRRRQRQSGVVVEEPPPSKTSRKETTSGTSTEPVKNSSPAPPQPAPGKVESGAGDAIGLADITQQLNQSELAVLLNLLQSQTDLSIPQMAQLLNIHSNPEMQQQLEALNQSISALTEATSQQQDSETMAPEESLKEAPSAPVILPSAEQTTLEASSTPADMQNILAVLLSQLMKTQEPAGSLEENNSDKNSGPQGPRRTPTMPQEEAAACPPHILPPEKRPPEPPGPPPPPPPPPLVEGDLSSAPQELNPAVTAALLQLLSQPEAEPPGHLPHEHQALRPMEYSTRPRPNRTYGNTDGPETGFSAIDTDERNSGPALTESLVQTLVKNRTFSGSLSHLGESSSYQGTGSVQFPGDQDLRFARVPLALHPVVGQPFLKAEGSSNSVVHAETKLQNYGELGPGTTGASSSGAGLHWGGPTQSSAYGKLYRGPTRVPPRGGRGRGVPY
Sequence of CDK12/CCNK complex (O75909 whole entry partner): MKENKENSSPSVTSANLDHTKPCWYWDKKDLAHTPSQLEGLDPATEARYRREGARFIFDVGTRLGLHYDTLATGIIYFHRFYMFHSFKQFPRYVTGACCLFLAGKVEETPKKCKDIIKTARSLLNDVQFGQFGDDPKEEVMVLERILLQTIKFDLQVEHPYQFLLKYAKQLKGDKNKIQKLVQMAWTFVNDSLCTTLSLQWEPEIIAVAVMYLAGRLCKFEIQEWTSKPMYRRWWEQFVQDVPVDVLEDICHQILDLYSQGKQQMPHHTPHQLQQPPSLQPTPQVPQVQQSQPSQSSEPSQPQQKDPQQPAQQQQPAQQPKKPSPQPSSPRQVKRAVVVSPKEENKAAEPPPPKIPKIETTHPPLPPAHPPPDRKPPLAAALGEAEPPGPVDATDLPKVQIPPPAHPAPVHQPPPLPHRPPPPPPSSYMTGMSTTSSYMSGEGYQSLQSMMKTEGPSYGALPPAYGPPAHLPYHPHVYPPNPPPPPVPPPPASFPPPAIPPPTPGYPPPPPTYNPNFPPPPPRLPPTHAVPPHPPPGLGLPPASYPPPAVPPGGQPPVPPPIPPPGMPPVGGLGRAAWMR
T1 sequence (Q9NYV4 whole entry): as the sequence (Q9NYV4 whole entry) above
T1 sequence (O75909 whole entry partner): as the sequence (O75909 whole entry partner) above
T2 sequence (P50613 2-346 limits assumed): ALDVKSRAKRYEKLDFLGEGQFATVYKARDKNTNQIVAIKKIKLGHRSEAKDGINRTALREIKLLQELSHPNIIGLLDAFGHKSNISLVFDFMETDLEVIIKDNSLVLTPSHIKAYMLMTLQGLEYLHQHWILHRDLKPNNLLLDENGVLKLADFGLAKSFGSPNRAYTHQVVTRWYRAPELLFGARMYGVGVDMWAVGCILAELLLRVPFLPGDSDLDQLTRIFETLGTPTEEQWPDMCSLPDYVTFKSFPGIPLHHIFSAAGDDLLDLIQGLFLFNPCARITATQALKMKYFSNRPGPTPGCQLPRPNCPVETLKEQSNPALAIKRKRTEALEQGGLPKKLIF
T2 sequence (P51946 whole entry partner): as the sequence (P51946 whole entry partner) above
T2 sequence (P51948 whole entry partner): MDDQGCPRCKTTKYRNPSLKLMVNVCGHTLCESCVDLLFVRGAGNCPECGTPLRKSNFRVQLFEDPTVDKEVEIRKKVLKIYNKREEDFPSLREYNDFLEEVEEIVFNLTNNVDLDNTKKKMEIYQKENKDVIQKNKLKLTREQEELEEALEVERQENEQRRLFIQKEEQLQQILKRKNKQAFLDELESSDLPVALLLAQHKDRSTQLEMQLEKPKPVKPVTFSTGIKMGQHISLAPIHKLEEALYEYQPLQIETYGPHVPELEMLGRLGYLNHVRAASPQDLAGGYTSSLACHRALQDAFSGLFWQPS

Turning to `CCc1cnn2c(Nc3cccc(NC(=O)c4ccc(NC(=O)/C=C/CN(C)C)cc4)c3)cc(N3CCCC(N)C3)nc12` (centres unmarked) [THZ-4-128-1, (E)-N-(3-((5-(3-Aminopiperidin-1-yl)-3-ethylpyrazolo[1,5-a]pyrimidin-7-yl)amino)phenyl)-4-(4-(dimethylamino)but-2-enamido)benzamide], the IC50 in the experiment on Jurkat cells [1] (read-out: Jurkat IC50) stood at 1040 nM; at CDK9/CycT, 73.4 nM; against CDK7/CycH it was 46.8 nM; against CDK2/CycA it was 17100 nM.

In the case of `C=CC(=O)Nc1cccc(Nc2nc(N3CCCCC3CCO)nc3c(CC)cnn23)c1` (centres unmarked) [SB1-E-18, N-(3-(8-Ethyl-2-(2-(2-hydroxyethyl)piperidin-1-yl)pyrazolo[1,5-a][1,3,5]triazin-4-ylamino)phenyl)acrylamide], in the experiment with Jurkat cells [1], the “Mode of inhibition of Jurkat T-ALL cell proliferation” value is given as “irreversiably inhibit”. Further, the IC50 worked out at 19.2 nM in the experiment with Jurkat cells [1] (read-out: Jurkat IC50), 41.8 nM against CDK9/CycT, 461 nM against CDK7/CycH and 15 nM on CDK2/CycA.

With `C=CC(=O)Nc1ccc(C(=O)Nc2cccc(Nc3nc(N4CCCCC4CCO)nc4c3ncn4C(C)C)c2)cc1` (centres unmarked) [THZ-4-124-1, 4-Acrylamido-N-(3-((2-(2-(2-hydroxyethyl)piperidin-1-yl)-9-isopropyl-9H-purin-6-yl)amino)phenyl)benzamide], the IC50 with Jurkat cells [1] (read-out: Jurkat IC50) was determined as 117 nM; against CDK9/CycT, 373 nM; at CDK7/CycH it was 122 nM; on CDK2/CycA it was 976 nM.

On to `C=CC(=O)Nc1cccc(Nc2cc(N[C@H]3CC[C@H](N(C)C)CC3)nc3c(C(C)C)cnn23)c1` [SB1-E-26, N-(3-(5-((1r,4r)-4-(Dimethylamino)cyclohexylamino)-3-isopropylpyrazolo[1,5-a]pyrimidin-7-ylamino)phenyl)acrylamide], for which the IC50 is > 300 nM in the experiment with Jurkat cells [1] (setting [5]); 518 nM in the experiment with Jurkat cells [1] (read-out: Jurkat IC50); 429 nM at CDK9/CycT; 1090 nM on CDK7/CycH; 939 nM against CDK2/CycA. The “Downregulation of TAL1, RUNX1, MYB transcripts” value in experiment [2] was “potently reduce”.

For the compound `CC(C)n1cnc2c(Nc3cccc(NC(=O)c4ccc(NC(=O)/C=C/CN(C)C)cc4)c3)nc(N3CCCC(N)C3)nc21` (centres unmarked) [THZ-4-119-1, (E)-N-(3-((2-(3-Aminopiperidin-1-yl)-9-isopropyl-9H-purin-6-yl)amino)phenyl)-4-(4-(dimethylamino)but-2-enamido)benzamide], the IC50 stood at 1960 nM with Jurkat cells [1] (read-out: Jurkat IC50), 519 nM on CDK9/CycT and 11.5 nM against CDK7/CycH.

Turning to `C=CC(=O)Nc1cccc(Nc2cc(N3CCCCC3CCO)nc3c(CC)cnn23)c1` (centres unmarked) [E-9(SB1-E-23), N-(3-(3-Ethyl-5-(2-(2-hydroxyethyl)piperidin-1-yl)pyrazolo[1,5-a]pyrimidin-7-ylamino)phenyl)acrylamide], the “Inhibition of Jurkat cell viability with and without washout” value with Jurkat cells [3] is “irreversibly inhibit Jurkat cell viability”. Besides, in the experiment with Jurkat cells [1], the “Mode of inhibition of Jurkat T-ALL cell proliferation” value is on record as “irreversiably inhibit”. For the same compound, the IC50 with Jurkat cells [1] (72 h, read-out: IC50 on Jurkat T-ALL cell proliferation) is < 100 nM; in the experiment on Jurkat cells [1] (read-out: Jurkat IC50), 78.8 nM; at CDK9/CycT, 21.6 nM; at CDK7/CycH, 1090 nM; against CDK2/CycA, 250 nM. Further, the “Labeling of CDK12 (mass shift)” value at CDK12/CCNK complex is “Only the masses of CDK12 proteins shift after treatment”. For the same compound, at CDK12, the “Pulldown of Cyclin K by biotin-THZ1 (CDK12 binding)” value is on record as “blocks the pulldown of Cyclin K”. Further, the “Pulldown of Cyclin H by biotin-THZ1 (CDK7 binding)” value on CDK7 is listed as “not able to bind to CDK7”. In [4], the “Effect on Polymerase II Serine 2 phosphorylation and MCL1 levels with and without washout” value is “irreversible effect”. Besides, the “Kinases bound in Jurkat cells (competition with desthiobiotin-ATP probe)” value with CDK12 and CDK13 was “binds predominantly CDK12 and CDK13”.

As to `C=CC(=O)Nc1cccc(Nc2cc(N[C@H]3CC[C@H](N(C)C)CC3)nc3c(CC)cnn23)c1` [SB1-E-21, N-(3-(5-((1r,4r)-4-(Dimethylamino)cyclohexylamino)-3-ethylpyrazolo[1,5-a]pyrimidin-7-ylamino)phenyl)acrylamide], the IC50 was > 300 nM with Jurkat cells [1] (setting [5]); 318 nM in the experiment on Jurkat cells [1] (read-out: Jurkat IC50); 226 nM against CDK9/CycT; 1210 nM against CDK7/CycH; 1220 nM against CDK2/CycA. Moreover, the “Downregulation of TAL1, RUNX1, MYB transcripts” value in [2] is listed as “potently reduce”.

For `CC(C)n1cnc2c(Nc3cccc(NC(=O)/C=C/CN(C)C)c3)nc(N[C@H]3CC[C@H](N(C)C)CC3)nc21` [THZ-5-18-1], the IC50 is 1340 nM in the experiment on Jurkat cells [1] (read-out: Jurkat IC50), 1530 nM against CDK9/CycT and 121 nM against CDK7/CycH.

`C=CC(=O)Nc1cccc(Nc2nc(N3CCCCC3CCO)nc3c2ncn3C(C)C)c1` (centres unmarked) [THZ-4-134-1, N-(3-((2-(2-(2-Hydroxyethyl)piperidin-1-yl)-9-isopropyl-9H-purin-6-yl)amino)phenyl)acrylamide]: the IC50 with Jurkat cells [1] (read-out: Jurkat IC50) was 522 nM; on CDK9/CycT, 379 nM; against CDK7/CycH it was 1180 nM; on CDK2/CycA it was 163 nM.
